Data taken from patent US20240216272A1, “PHARMACEUTICAL PREPARATION” (KOWA COMPANY, LTD., priority 2014, published 2024).

What was measured:
Type in all cases: physicochemical
[1] = Test Example 1: photostability of ripasudil (powder), analogs by HPLC; conditions: for Analogs (%): powder in glass petri dish, D65 fluorescent lamp 4000 lux, 25° C.
Method: (§1) In the following test examples, ripasudil monohydrochloride dihydrate can be produced in accordance with the method described in WO2006/057397, for example. Moreover, in the following test examples, measurement of ripasudil and its analogs using HPLC was performed using an ODS column as the column, 0.01 mol/L phosphate buffer and acetonitrile as the mobile phase, and an ultraviolet absorptiometer (wavelength: 280 nm) as the detector.
The stability of ripasudil with respect to light was evaluated by examining the presence or absence of degradation products formed by exposure to light.
Specifically, powdery ripasudil monohydrochloride dihydrate was spread in a glass petri dish to a thickness of 3 mm or less, and then irradiated with 4000 lux of light to give a cumulative radiation dose of 400,000, 800,000, or 1,200, 000 lux·hr, at 25° C., with a D65 fluorescent lamp as the light source, using a photostability tester (LT-120A: Nagano Science Corporation).
To examine the presence or absence of photodegradation products of ripasudil, the presence or absence of an increase in the amount of ripasudil analogs was evaluated for the sample before and after exposure to light. The amount of analogs was evaluated as the ratio (%) of the peak area of analogs relative to the peak area of ripasudil, using HPLC.

[2] = Test Example 2: photostability of ripasudil in an aqueous composition; conditions: D65 lamp; for Analogs (%): aqueous composition 0.4 g/100 mL as free form, pH 6.0, transparent polypropylene container, 25° C.
Method: as §1
The stability of ripasudil incorporated in an aqueous composition with respect to light was evaluated by examining the presence or absence of degradation products formed by exposure to light, as in Test Example 1.
Specifically, an aqueous composition containing, per 100 mL, 0.4896 g of ripasudil monohydrochloride dihydrate (0.4 g, as the free form of ripasudil), 0.4 g of anhydrous sodium dihydrogen phosphate, 2.136 g of glycerin, 0.002 g of benzalkonium chloride, an appropriate amount of sodium hydroxide (pH 6.0), and sterile purified water (balance) was prepared, and this aqueous composition was stored in a transparent container made of polypropylene. The aqueous composition was then irradiated with 4000 lux of light to give a cumulative radiation dose of 300,000, 600,000, or 1,200,000 lux·hr, at 25° C., with a D65 fluorescent lamp as the light source, using a photostability tester (LT-120A: Nagano Science Corporation).
To examine the presence or absence of photodegradation products of ripasudil, the presence or absence of an increase in the amount of ripasudil analogs was evaluated. The amount of analogs was evaluated as the area percentage (%) relative to the total peak area derived from ripasudil and its analogs, using HPLC.

[3] = Test Example 3: wavelengths of rays causing degradation of ripasudil in an aqueous composition No. 1; conditions: for Analogs (%): about 15 W·h/m^2, 25° C.; for increase in the amount of analogs: aqueous composition, in words
Method: In the following test examples, ripasudil monohydrochloride dihydrate can be produced in accordance with the method described in WO2006/057397, for example. Moreover, in the following test examples, measurement of ripasudil and its analogs using HPLC was performed using an ODS column as the column, 0.01 mol/L phosphate buffer and acetonitrile as the mobile phase, and an ultraviolet absorptiometer (wavelength: 280 nm) as the detector. The wavelengths of rays causing the photodegradation of ripasudil in the aqueous composition examined in Test Example 2 were identified by examining the presence or absence of degradation products formed by exposure to light, by irradiation of rays with a specific range of wavelengths. Specifically, an aqueous composition containing, per 100 mL, 0.0612 g of ripasudil monohydrochloride dihydrate (0.05 g as the free form of ripasudil), 1.19 g of boric acid, 0.42 g of potassium chloride, 0.002 g of benzalkonium chloride, an appropriate amount of sodium hydroxide (pH 6.7), and sterile purified water (balance) was prepared, and this aqueous composition was stored in a transparent container made of polypropylene. The aqueous composition was then irradiated with rays with wavelengths in the range of approximately 270 to 335 nm, 320 to 395 nm, 370 to 435 nm, 430 to 470 nm, 470 to 530 nm, 525 to 575 nm, 570 to 630 nm, 625 to 675 nm, or 660 to 740 nm, at 25° C., using a spectroradiometer equipped with optical filters (spectral unit: HSU-100S, light source: MAX-302FBD; both from Asahi Spectra Co., Ltd.). Note that the rays of wavelengths in each of the ranges were emitted at a radiation energy of about 15 w·h/m^2. To examine the presence or absence of photodegradation products of ripasudil, the presence or absence of an increase in the amount of ripasudil analogs was evaluated, using the same method as that of Test Example 1.

Structure (SMILES): C[C@H]1CNCCCN1S(=O)(=O)c1cccc2cncc(F)c12 [ripasudil, 4-fluoro-5-[[(2S)-2-methyl-1,4-diazepan-1-yl]sulfonyl]isoquinoline]
- Analogs (%) ([1]; before exposure to light): 0.11%
- Analogs (%) ([1]; cumulative radiation dose 400,000 lux·hr): 0.14%
- Analogs (%) ([1]; cumulative radiation dose 800,000 lux·hr): 0.16%
- Analogs (%) ([1]; cumulative radiation dose 1,200,000 lux·hr): 0.16%
- formation of photodegradation products ([1]; powder, up to 1,200,000 lux·hr, in words): no formation of photodegradation products was observed
- Analogs (%) ([2]; 300,000 lux·hr): 1.29%
- Analogs (%) ([2]; 600,000 lux·hr): 1.95%
- Analogs (%) ([2]; 1,200,000 lux·hr): 3.67%
- Analogs (%) ([2]; before exposure to light): 0.17%
- formation of degradation products due to exposure to light ([2]; aqueous composition, transparent polypropylene container, in words): degradation products due to exposure to light are formed
- Analogs (%) ([3]; aqueous composition 0.05 g/100 mL as free form, boric acid, pH 6.7, transparent polypropylene container, emitted wavelengths 270 to 335 nm): 4.22%
- increase in the amount of analogs ([3]; rays with wavelengths of 370 nm or more): an increase in the amount of analogs was not observed
- increase in the amount of analogs ([3]; shorter wavelengths, particularly 270 to 335 nm): a significant increase in the amount of analogs was observed
- Analogs (%) ([3]; same composition, emitted wavelengths 320 to 395 nm): 1.23%
- Analogs (%) ([3]; same composition, emitted wavelengths 370 to 435 nm): 0.05%
- Analogs (%) ([3]; same composition, emitted wavelengths 430 to 470 nm): 0.05%
- Analogs (%) ([3]; same composition, emitted wavelengths 470 to 530 nm): 0.05%
- Analogs (%) ([3]; same composition, emitted wavelengths 525 to 575 nm): 0.05%
- Analogs (%) ([3]; same composition, emitted wavelengths 570 to 630 nm): 0.05%
- Analogs (%) ([3]; same composition, emitted wavelengths 625 to 675 nm): 0.05%
- Analogs (%) ([3]; same composition, emitted wavelengths 660 to 740 nm): 0.05%
